Data: patent US8952024B2, “Herbicidal pyrimidone derivatives” (E I du Pont de Nemours and Company, priority 2009, dated 2015)

Legend:
Assay type in all cases: in vivo
[1] = system: morningglory (Ipomoea spp.); assay: Test A pre-/postemergence plant response
Procedure, shortened: (§1)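 Both pre- and postemergence treatments are applied simultaneously, using chemicals formulated in a non-phytotoxic solvent mixture with surfactant. Postemergence plants are 2–10 cm high with one to two leaves. After approximately ten days in a greenhouse, injury is scored visually from 0 (none) to 100 (complete control) relative to untreated plants.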

[2] = system: pigweed (Amaranthus retroflexus); assay: Test A pre-/postemergence plant response
Procedure, shortened: as §1

[3] = system: velvetleaf (Abutilon theophrasti); assay: Test A pre-/postemergence plant response
Procedure, shortened: as §1

[4] = system: barnyardgrass (Echinochloa crus-galli); assay: Test A pre-/postemergence plant response
Procedure, shortened: as §1

[5] = system: wheat (Triticum aestivum); assay: Test A pre-/postemergence plant response
Procedure, shortened: as §1

[6] = system: corn (Zea mays); assay: Test A pre-/postemergence plant response
Procedure, shortened: as §1

[7] = system: large crabgrass (Digitaria sanguinalis); assay: Test A pre-/postemergence plant response
Procedure, shortened: as §1

[8] = system: giant foxtail (Setaria faberii); assay: Test A pre-/postemergence plant response
Procedure, shortened: as §1

[9] = system: rice (Oryza sativa); assay: Test B flooded paddy test; conditions: for Plant response rating, Rice: Flood (flooded paddy test), 13 to 15 days
Procedure, shortened: (§2)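 Rice, umbrella sedge, ducksalad and barnyardgrass were grown to the 2-leaf stage, flooded to 3 cm, and compound was applied directly to the paddy water, with that depth kept throughout. After 13 to 15 days in the greenhouse, plants were visually rated against controls on a 0 (no effect) to 100 (complete control) scale.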

[10] = system: umbrella sedge (Cyperus difformis); assay: Test B flooded paddy test; conditions: for Plant response rating, Sedge, Umbrella: Flood (flooded paddy test), 13 to 15 days
Procedure, shortened: as §2

[11] = system: barnyardgrass (Echinochloa crus-galli); assay: Test B flooded paddy test; conditions: for Plant response rating, Barnyardgrass: Flood (flooded paddy test), 13 to 15 days
Procedure, shortened: as §2

[12] = system: ducksalad (Heteranthera limosa); assay: Test B flooded paddy test; conditions: for Plant response rating, Ducksalad: Flood (flooded paddy test), 13 to 15 days
Procedure, shortened: as §2

[13] = system: winter barley (Hordeum vulgare); assay: Test B postemergence plant response; conditions: for Barley plant response rating (0 to 100 scale): 0 is no effect
Description: At the same time, plants selected from these crop and weed species and also winter barley (Hordeum vulgare), canarygrass (Phalaris minor), chickweed (Stellaria media) and windgrass (Apera spica-venti) were planted in pots containing Redi-Earth® planting medium (Scotts Company, 14111 Scottslawn Road, Marysville, Ohio 43041) comprising spaghnum peat moss, vermiculite, wetting agent and starter nutrients and treated with postemergence applications of some of the test chemicals formulated in the same manner. Plants ranged in height from 2 to 18 cm (1- to 4-leaf stage) for postemergence treatments.
Treated plants and controls were maintained in a greenhouse for 13 to 15 days, after which time all treated plants were visually evaluated and compared to controls. Plant response ratings, summarized in Table B, are based on a scale of 0 to 100 where 0 is no effect and 100 is complete control. A dash (-) response means no test result.

[14] = Postemergence, 125 g ai/ha, visual injury, 0 to 100 scale (0 no effect, 100 complete control), approx. ten days
[15] = Postemergence, 500 g ai/ha, 0 to 100 scale, 0 = no effect, 100 = complete control, approx. ten days
[16] = Preemergence, 500 g ai/ha, visual injury, 0 to 100 scale (0 no effect, 100 complete control), approx. ten days
[17] = Preemergence, 125 g ai/ha, 0 to 100 scale, 0 = no effect, 100 = complete control
[18] = 250 g ai/ha, flooded paddy test, visual rating on 0 to 100 scale (0 no effect, 100 complete control) after 13 to 15 days
[19] = 31 g ai/ha, scale of 0 to 100 where 0 is no effect and 100 is complete control
[20] = 62 g ai/ha, scale of 0 to 100 where 0 is no effect and 100 is complete control
[21] = 125 g ai/ha, scale 0 to 100, 0 is no effect, 100 is complete control
[22] = Postemergence, 125 g ai/ha, 0 to 100 scale where 0 is no effect and 100 is complete control
[23] = Postemergence, 500 g ai/ha, visual injury, 0 to 100 scale (0 no effect, 100 complete control), approx. ten days
[24] = Preemergence, 500 g ai/ha, 0 to 100 scale, 0 = no effect, 100 = complete control
[25] = Postemergence, 31 g ai/ha, 0 to 100 scale (0 no effect, 100 complete control)
[26] = Postemergence, 250 g ai/ha, scale 0 to 100 (0 no effect, 100 complete control), 13 to 15 days
[27] = 62 g ai/ha, postemergence, 100 is complete control, 13 to 15 days
[28] = Postemergence, 125 g ai/ha, scale 0 to 100 (0 no effect, 100 complete control)

Compound: Cc1cccc(-n2c(-c3ccccc3)ncc(C(=O)C3=C(O)CCCC3=O)c2=O)c1F [Compound 58]
- Morningglory plant response rating [1, 14]: 80
- Plant response rating, Morningglory [1, 15]: 100
- Plant response rating, Morningglory [1, 16]: 100
- Pigweed plant response rating [2, 14]: 100
- Plant response rating, Pigweed [2, 15]: 100
- Plant response rating, Pigweed [2, 17]: 70
- Plant response rating, Pigweed [2, 16]: 100
- Velvetleaf plant response rating [3, 14]: 100
- Plant response rating, Velvetleaf [3, 15]: 100
- Plant response rating, Velvetleaf [3, 17]: 70
- Plant response rating, Velvetleaf [3, 16]: 100
- Barnyardgrass plant response rating [4, 14]: 50
- Plant response rating, Barnyardgrass [4, 15]: 90
- Plant response rating, Barnyardgrass [4, 17]: 30
- Plant response rating, Barnyardgrass [4, 16]: 90
- Wheat plant response rating [5, 14]: 0
- Plant response rating, Wheat [5, 15]: 0
- Plant response rating, Wheat [5, 17]: 0
- Plant response rating, Wheat [5, 16]: 0
- Corn plant response rating [6, 14]: 0
- Plant response rating, Corn [6, 15]: 20
- Plant response rating, Corn [6, 17]: 0
- Plant response rating, Corn [6, 16]: 0
- Crabgrass, Large plant response rating [7, 14]: 80
- Plant response rating, Crabgrass, Large [7, 15]: 90
- Plant response rating, Crabgrass, Large [7, 17]: 70
- Plant response rating, Crabgrass, Large [7, 16]: 90
- Foxtail, Giant plant response rating [8, 14]: 70
- Plant response rating, Foxtail, Giant [8, 15]: 90
- Plant response rating, Foxtail, Giant [8, 17]: 50
- Plant response rating, Foxtail, Giant [8, 16]: 80
- Plant response rating, Flood, Rice [9, 18]: 0
- Plant response rating, Rice [9, 19]: 0
- Plant response rating, Rice [9, 20]: 0
- Plant response rating, Rice [9, 21]: 0
- Plant response rating, Flood, Sedge, Umbrella [10, 18]: 0
- Plant response rating, Sedge, Umbrella [10, 19]: 0
- Plant response rating, Sedge, Umbrella [10, 20]: 0
- Plant response rating, Sedge, Umbrella [10, 21]: 0
- Plant response rating, Flood, Barnyardgrass [11, 18]: 0
- Plant response rating, Barnyardgrass [11, 19]: 0
- Plant response rating, Barnyardgrass [11, 20]: 0
- Plant response rating, Barnyardgrass [11, 21]: 0
- Plant response rating, Flood, Ducksalad [12, 18]: 0
- Plant response rating, Ducksalad [12, 19]: 0
- Plant response rating, Ducksalad [12, 20]: 0
- Plant response rating, Ducksalad [12, 21]: 0
- Plant response rating, Barley ([13]; 31 g ai/ha, postemergence, scale 0 to 100, 0 is no effect, 100 is complete control): 5
- Plant response rating, Barley ([13]; Postemergence, 62 g ai/ha, scale 0 (no effect) to 100 (complete control), 13 to 15 days): 5
- Plant response rating, Barley ([13]; Postemergence, 125 g ai/ha, visual rating after 13 to 15 days, scale 0 (no effect) to 100 (complete control)): 5
- Plant response rating, Barley ([13]; Postemergence, 250 g ai/ha, scale 0 to 100 (0 no effect, 100 complete control)): 10

Compound: CCCCn1c(-c2ccccc2)ncc(C(=O)C2=C(O)C3CCC(C3)C2=O)c1=O (stereo not shown) [Compound 240]
- Plant response rating, Morningglory [1, 22]: 100
- Morningglory plant response rating [1, 23]: 100
- Plant response rating, Morningglory [1, 17]: 0
- Plant response rating, Morningglory [1, 24]: 0
- Plant response rating, Pigweed [2, 22]: 90
- Pigweed plant response rating [2, 23]: 100
- Plant response rating, Pigweed [2, 17]: 20
- Plant response rating, Pigweed [2, 24]: 100
- Plant response rating, Velvetleaf [3, 22]: 100
- Velvetleaf plant response rating [3, 23]: 100
- Plant response rating, Velvetleaf [3, 17]: 60
- Plant response rating, Velvetleaf [3, 24]: 80
- Plant response rating, Barnyardgrass [4, 22]: 100
- Barnyardgrass plant response rating [4, 23]: 100
- Plant response rating, Barnyardgrass [4, 17]: 40
- Plant response rating, Wheat [5, 22]: 20
- Wheat plant response rating [5, 23]: 40
- Plant response rating, Wheat [5, 17]: 0
- Plant response rating, Wheat [5, 24]: 40
- Plant response rating, Corn [6, 22]: 40
- Corn plant response rating [6, 23]: 80
- Plant response rating, Corn [6, 17]: 0
- Plant response rating, Corn [6, 24]: 40
- Plant response rating, Crabgrass, Large [7, 22]: 90
- Crabgrass, Large plant response rating [7, 23]: 100
- Plant response rating, Crabgrass, Large [7, 17]: 50
- Plant response rating, Crabgrass, Large [7, 24]: 100
- Plant response rating, Foxtail, Giant [8, 22]: 90
- Foxtail, Giant plant response rating [8, 23]: 100
- Plant response rating, Foxtail, Giant [8, 17]: 40
- Plant response rating, Foxtail, Giant [8, 24]: 80
- Plant response rating, Barley [13, 25]: 5
- Plant response rating, Barley ([13]; Postemergence, 125 g ai/ha, scale 0 (no effect) to 100 (complete control), 13 to 15 days): 15
- Plant response rating, Barley [13, 26]: 15
- Plant response rating, Barley ([13]; Postemergence, 62 g ai/ha, scale 0 to 100 (0 no effect, 100 complete control)): 5

Compound: O=C1CCCC(O)=C1C(=O)c1cnc(-c2ccccc2)n(C2CC[S+]([O-])CC2)c1=O (mixture of isomers) [Compound 169, 5-[(2-hydroxy-6-oxo-1-cyclohexen-1-yl)carbonyl]-2-phenyl-3-(trans/cis-tetrahydro-1-oxido-2H-thiopyran-4-yl)-4(3H)-pyrimidinone]
- Plant response rating, Morningglory [1, 22]: 100
- Morningglory plant response rating [1, 23]: 100
- Plant response rating, Morningglory [1, 17]: 0
- Plant response rating, Morningglory [1, 24]: 20
- Plant response rating, Pigweed [2, 22]: 100
- Pigweed plant response rating [2, 23]: 100
- Plant response rating, Pigweed [2, 17]: 0
- Plant response rating, Pigweed [2, 24]: 50
- Plant response rating, Velvetleaf [3, 22]: 100
- Velvetleaf plant response rating [3, 23]: 100
- Plant response rating, Velvetleaf [3, 17]: 20
- Plant response rating, Velvetleaf [3, 24]: 50
- Plant response rating, Barnyardgrass [4, 22]: 90
- Barnyardgrass plant response rating [4, 23]: 100
- Plant response rating, Barnyardgrass [4, 17]: 0
- Plant response rating, Barnyardgrass [4, 24]: 50
- Plant response rating, Wheat [5, 22]: 20
- Wheat plant response rating [5, 23]: 20
- Plant response rating, Wheat [5, 17]: 0
- Plant response rating, Wheat [5, 24]: 0
- Plant response rating, Corn [6, 22]: 0
- Corn plant response rating [6, 23]: 30
- Plant response rating, Corn [6, 17]: 0
- Plant response rating, Corn [6, 24]: 20
- Plant response rating, Crabgrass, Large [7, 22]: 90
- Crabgrass, Large plant response rating [7, 23]: 100
- Plant response rating, Crabgrass, Large [7, 17]: 40
- Plant response rating, Crabgrass, Large [7, 24]: 40
- Plant response rating, Foxtail, Giant [8, 22]: 80
- Foxtail, Giant plant response rating [8, 23]: 100
- Plant response rating, Foxtail, Giant [8, 17]: 40
- Plant response rating, Foxtail, Giant [8, 24]: 50
- Plant response rating, Barley ([13]; 16 g ai/ha, Postemergence, 0 to 100 scale): 0
- Barley plant response rating (0 to 100 scale) [13, 27]: 0
- Plant response rating, Barley [13, 25]: 0
- Plant response rating, Barley [13, 28]: 0

Compound: O=C1CCCC(O)=C1C(=O)c1cnc(C2CC2)n(C2CCCCC2)c1=O [Compound 160]
- Plant response rating, Morningglory [1, 22]: 100
- Morningglory plant response rating [1, 23]: 100
- Plant response rating, Morningglory [1, 17]: 70
- Plant response rating, Pigweed [2, 22]: 100
- Pigweed plant response rating [2, 23]: 100
- Plant response rating, Pigweed [2, 17]: 80
- Plant response rating, Pigweed [2, 24]: 100
- Plant response rating, Velvetleaf [3, 22]: 100
- Velvetleaf plant response rating [3, 23]: 100
- Plant response rating, Velvetleaf [3, 17]: 60
- Plant response rating, Velvetleaf [3, 24]: 30
- Plant response rating, Barnyardgrass [4, 22]: 90
- Barnyardgrass plant response rating [4, 23]: 100
- Plant response rating, Barnyardgrass [4, 17]: 40
- Plant response rating, Barnyardgrass [4, 24]: 80
- Plant response rating, Wheat [5, 22]: 0
- Wheat plant response rating [5, 23]: 50
- Plant response rating, Wheat [5, 17]: 0
- Plant response rating, Wheat [5, 24]: 20
- Plant response rating, Corn [6, 22]: 20
- Corn plant response rating [6, 23]: 60
- Plant response rating, Corn [6, 17]: 0
- Plant response rating, Corn [6, 24]: 20
- Plant response rating, Crabgrass, Large [7, 22]: 90
- Crabgrass, Large plant response rating [7, 23]: 90
- Plant response rating, Crabgrass, Large [7, 17]: 80
- Plant response rating, Crabgrass, Large [7, 24]: 100
- Plant response rating, Foxtail, Giant [8, 22]: 70
- Foxtail, Giant plant response rating [8, 23]: 80
- Plant response rating, Foxtail, Giant [8, 17]: 20
- Plant response rating, Foxtail, Giant [8, 24]: 70
- Barley plant response rating (0 to 100 scale) [13, 27]: 30
- Plant response rating, Barley [13, 25]: 5
- Plant response rating, Barley [13, 28]: 35
- Plant response rating, Barley [13, 26]: 50
